Counter-ions that a name gives are not always drawn.
Experiments:
Assay in all cases: Proliferation assay, crystal violet staining
[1] = system: DU145 cells; details: Homo sapiens, DU-145, 96 h, read-out: Inhibition of DU145 cell proliferation, DU145 cells, 4 days incubation
Protocol: (§1) After 24 hours, the cells of one plate (zero plate) were dyed with crystal violet (see below), whereas the medium of the other plates was replaced with fresh culture medium (200 μl) to which the test substances were added in various concentrations (0 μM, and also in the range of 0.001-10 μM; the final concentration of the solvent dimethyl sulphoxide was 0.1 or 0.5%). The cells were incubated for 4 days in the presence of the test substances. […] After washing the fixed cells three times with water, the plates were dried at room temperature. The cells were stained by adding 100 μl/measurement point of a 0.1% strength crystal violet solution (pH adjusted to pH 3 by adding acetic acid). After washing the cells three times with water, the plates were dried at room temperature. The dye was dissolved by adding 100 μl/measurement point of a 10% strength acetic acid solution. […] The percentage change in cell growth was calculated by normalizing the measured values to the absorbance values of the zero plate (=0%) and the absorbance of the untreated (0 W) cells (=100%). The IC50 values were determined by means of a four parameter fit.

[2] = system: HeLa-MaTu-ADR cells; format: cell-based; details: Homo sapiens, 96 h, 4 days incubation, read-out: Inhibition of HeLa-MaTu-ADR cell proliferation
Protocol: as §1

[3] = system: Caco-2 cells; format: cell-based; details: Homo sapiens, Caco-2, 96 h, 4 days incubation, read-out: Inhibition of Caco-2 cell proliferation
Protocol: as §1

[4] = system: NCI-H460 cells; details: Homo sapiens, NCI-H460, 96 h, read-out: Inhibition of NCI-H460 cell proliferation, NCI-H460 cells, 4 days incubation
Protocol: as §1

[5] = system: HeLa cells; details: Homo sapiens, 96 h, read-out: Inhibition of HeLa cell proliferation, HeLa cells, 4 days incubation
Protocol: as §1

SMILES	IC50 [1] [nM]	IC50 [2] [nM]	IC50 [3] [nM]	IC50 [4] [nM]	IC50 [5] [nM]
C=C(C)c1cc(N2CCOCC2)nc2c(-c3cc[nH]n3)nccc12 [Example 10, 4-Isopropenyl-2-(morpholin-4-yl)-8-(1H-pyrazol-3-yl)-[1,7]naphthyridine]	827	1300	1460	447	496
CS(=O)(=O)c1ccc(-c2cc(N3CCOCC3)nc3c(-c4ccn[nH]4)nccc23)c(F)c1 [Example 24]	1350	3410	833	378	–
C[C@@H]1COCCN1c1cc(S(C)(=O)=O)c2ccnc(-c3ccn[nH]3)c2n1 [Example 33, 2-[(3R)-3-methylmorpholin-4-yl]-4-(methylsulfonyl)-8-(1H-pyrazol-5-yl)-1,7-naphthyridine]	1010	> 3000	653	269	–
N#Cc1cc(N2CCOCC2)nc2c(-c3cc[nH]n3)nccc12 [Example 34, 2-(morpholin-4-yl)-8-(1H-pyrazol-3-yl)-[1,7]naphthyridine-4-carbonitrile]	2390	> 3000	4990	1630	1020
CC(C)Oc1cc(N2CCOCC2)nc2c(-c3cc[nH]n3)nccc12 [Example 40, 4-Isopropoxy-2-(morpholin-4-yl)-8-(1H-pyrazol-3-yl)-[1,7]naphthyridine]	1150	2260	1970	672	2720
COc1cc(N2CCOCC2)nc2c(-c3cc[nH]n3)nccc12 [Example 44, 4-methoxy-2-(morpholin-4-yl)-8-(1H-pyrazol-3-yl)-[1,7]naphthyridine]	4450	> 10000	7690	2010	1010
CC(C)Oc1cc(N2CCOC[C@H]2C)nc2c(-c3cc[nH]n3)nccc12 [Example 51, 4-Isopropoxy-2-((R)-3-methylmorpholin-4-yl)-8-(1H-pyrazol-3-yl)-[1,7]naphthyridine]	895	1800	2930	391	1230
CSc1cc(N2CCOC[C@H]2C)nc2c(-c3ccn[nH]3)nccc12 [Example 63, 2-[(3R)-3-methylmorpholin-4-yl]-4-(methylsulfanyl)-8-(1H-pyrazol-5-yl)-1,7-naphthyridine]	915	1530	1540	308	–
Cc1cc(S(C)(=O)=O)ncc1-c1cc(N2CCOC[C@H]2C)nc2c(-c3ccn[nH]3)nccc12 [Example 79, 4-[4-methyl-6-(methylsulfonyl)pyridin-3-yl]-2-[(3R)-3-methylmorpholin-4-yl]-8-(1H-pyrazol-5-yl)-1,7-naphthyridine]	656	2300	868	93.7	303
CCS(=O)(CC)=Nc1cc(N2CCOC[C@H]2C)nc2c(-c3ccn[nH]3)nccc12 [Example 126, 4-{[diethyl(oxido)-λ^6-sulfanylidene]amino}-2-[(3R)-3-methylmorpholin-4-yl]-8-(1H-pyrazol-5-yl)-1,7-naphthyridine]	94	595	340	88.4	170
c1cc(-c2nccc3c(N4CCn5ccnc5C4)cc(N4CCOCC4)nc23)[nH]n1 [Example 169, 4-(5,6-dihydroimidazo[1,2-a]pyrazin-7(8H)-yl)-2-(morpholin-4-yl)-8-(1H-pyrazol-5-yl)-1,7-naphthyridine]	–	> 3000	> 3000	–	731

Second part, the compound after the results:

IC50 [1] [nM]	IC50 [2] [nM]	IC50 [3] [nM]	IC50 [4] [nM]	IC50 [5] [nM]	SMILES
368	> 3000	2190	641	–	CN=S(C)(=O)c1ccc(-c2cc(N3CCOCC3)nc3c(-c4ccn[nH]4)nccc23)cc1 (stereo not shown) [Example 5, 4-(4-(N,S-dimethylsulfonimidoyl)phenyl)-2-[morpholin-4-yl]-8-(1H-pyrazol-5-yl)-1,7-naphthyridine]
1590	–	5950	1020	1330	CS(=O)(=O)c1ccc(-c2cc(N3CCOCC3)nc3c(-c4cc[nH]n4)nccc23)cc1 [Example 7, 4-(4-methanesulphonylphenyl)-2-(morpholin-4-yl)-8-(1H-pyrazol-3-yl)-[1,7]naphthyridine]
2050	> 3000	> 3000	909	2260	CS(=O)(=O)c1ccccc1-c1cc(N2CCOCC2)nc2c(-c3cc[nH]n3)nccc12 [Example 8, 4-(2-methanesulphonylphenyl)-2-(morpholin-4-yl)-8-(1H-pyrazol-3-yl)-[1,7]naphthyridine Hydrochloride]
817	> 3000	1720	528	1410	CS(=O)(=O)c1cccc(-c2cc(N3CCOCC3)nc3c(-c4cc[nH]n4)nccc23)c1 [Example 15, 4-(3-methanesulphonylphenyl)-2-(morpholin-4-yl)-8-(1H-pyrazol-3-yl)-[1,7]naphthyridine]
725	> 1000	> 1000	586	296	C[C@@H]1COCCN1c1cc(-c2ccc(S(C)(=O)=O)cc2)c2ccnc(-c3cc[nH]n3)c2n1 [Example 26, 4-(4-methanesulphonylphenyl)-2-((R)-3-methylmorpholin-4-yl)-8-(2H-pyrazol-3-yl)-[1,7]naphthyridine]
291	498	577	243	394	C[C@@H]1COCCN1c1cc(C2CC2)c2ccnc(-c3cc[nH]n3)c2n1 [Example 29]
325	> 3000	2890	293	512	C[C@@H]1COCCN1c1cc(-c2ccc(S(C)(=N)=O)cc2)c2ccnc(-c3ccn[nH]3)c2n1 (stereo partly drawn) [Example 30, 4-[2-((R)-3-methylmorpholin-4-yl)-8-(2H-pyrazol-3-yl)-[1,7]naphthyridine-4-yl]phenyl-S-methylsulphoximide]
1110	> 3000	> 3000	685	1250	C[C@@H]1COCCN1c1cc(-c2cccc(S(C)(=N)=O)c2)c2ccnc(-c3ccn[nH]3)c2n1 (stereo partly drawn) [Example 31, 3-[2-((R)-3-methylmorpholin-4-yl)-8-(2H-pyrazol-3-yl)-[1,7]naphthyridine-4-yl]phenyl-S-methylsulphoximide]
1840	> 3000	> 3000	> 3000	1560	CS(=O)(=O)c1cc(N2CCOCC2)nc2c(-c3cc[nH]n3)nccc12 [Example 32]
730	2170	1980	691	998	c1cc2c(C3CCOCC3)cc(N3CCOCC3)nc2c(-c2cc[nH]n2)n1 [Example 60, 2-(morpholin-4-yl)-8-(1H-pyrazol-5-yl)-4-(tetrahydro-2H-pyran-4-yl)-1,7-naphthyridine]
506	1170	844	92.3	–	C[C@@H]1COCCN1c1cc(N=S2(=O)CCOCC2)c2ccnc(-c3ccn[nH]3)c2n1 [Example 64, N-{2-[(3R)-3-methylmorpholin-4-yl]-8-(1H-pyrazol-5-yl)-1,7-naphthyridin-4-yl}-1,4λ^4-oxathian-4-imine 4-oxide]
748	1790	631	59	181	Cc1nc(S(C)(=O)=O)ccc1-c1cc(N2CCOC[C@H]2C)nc2c(-c3ccn[nH]3)nccc12 [Example 73, 4-[2-methyl-6-(methylsulfonyl)pyridin-3-yl]-2-[(3R)-3-methylmorpholin-4-yl]-8-(1H-pyrazol-5-yl)-1,7-naphthyridine]
> 1000	> 1000	> 1000	> 1000	203	C[C@@H]1COCCN1c1cc(-c2ccc(S(C)(=O)=O)cc2F)c2ccnc(-c3ccn[nH]3)c2n1 [Example 74, 4-[2-fluoro-4-(methylsulfonyl)phenyl]-2-[(3R)-3-methylmorpholin-4-yl]-8-(1H-pyrazol-5-yl)-1,7-naphthyridine]
104	291	286	81.7	157	Cc1ccc(-c2cc(N3CCOC[C@H]3C)nc3c(-c4ccn[nH]4)nccc23)cn1 [Example 88, 2-[(3R)-3-methylmorpholin-4-yl]-4-(6-methylpyridin-3-yl)-8-(1H-pyrazol-5-yl)-1,7-naphthyridine]
146	791	549	153	383	C[C@@H]1COCCN1c1cc(N=S2(=O)CCCC2)c2ccnc(-c3ccn[nH]3)c2n1 [Example 137, N-{2-[(3R)-3-methylmorpholin-4-yl]-8-(1H-pyrazol-5-yl)-1,7-naphthyridin-4-yl}tetrahydro-1H-1λ^4-thiophen-1-imine 1-oxide]
30.5	522	492	90.6	248	C[C@@H]1COCCN1c1cc(N2CCOCC2)c2ccnc(-c3ccn[nH]3)c2n1 [Example 145, 2-[(3R)-3-methylmorpholin-4-yl]-4-(morpholin-4-yl)-8-(1H-pyrazol-5-yl)-1,7-naphthyridine]

From patent US10772893B2, “2-(morpholin-4-yl)-1,7-naphthyridines” (BAYER PHARMA AKTIENGESELLSCHAFT, priority 2014, dated 2020)
